Assay: Moisture sensitivity of Compound I
Type: physicochemical
Text: This monohydrochloride of formula (I) (hereinafter, “Compound I”) is described in scheme 2 of Villhauer et al., J Med Chem, Vol. 45, No. 12, pp. 2362-65 (2002), which is hereby incorporated by reference. Compound I is a moisture-sensitive therapeutic compound. At humidities above 75%, Compound I absorbs moisture and begins to deliquesce; moreover, Compound I undergoes both acidic and basic degradation with cyclic imidate (“CI”) being the major degradation product.

humidity at which Compound I absorbs moisture and begins to deliquesce: above 75%
Compound: Cl.N#Cc1ccc(NCCNCC(=O)N2CCC[C@H]2C#N)nc1 [Compound I, [S]-1-[2-(5-cyano-2-pyridinylamino)ethylamino]acetyl-2-pyrolidine carbonitrile monohydrochloride]
